BindingDB's records for doi:10.1021/jm001024j (Uppsala University, 2001)
pKi: −log10 of the molar value.

Target: T1, Dimer of Gag-Pol polyprotein [489-587] (Human immunodeficiency virus 1, UniProt P12497)
T1 construct: 489-587
Assay: Protease Inhibition Assay
Details: pH 5; 30 °C

With `O=S1(=O)N(Cc2cccc(I)c2)[C@H](COc2ccccc2)[C@H](O)[C@@H](O)[C@@H](COc2ccccc2)N1Cc1cccc(I)c1` the pKi was 7.03.

`CC(N=O)c1cccc(CN2[C@H](COc3ccccc3)[C@H](O)[C@@H](O)[C@@H](COc3ccccc3)N(Cc3cccc(C(C)N=O)c3)S2(=O)=O)c1` (stereo not given in full) showed a pKi of 8.47.

Work on `CC(=O)c1cccc(CN2[C@H](COc3ccccc3)[C@H](O)[C@@H](O)[C@@H](COc3ccccc3)N(Cc3cccc(C(C)=O)c3)S2(=O)=O)c1` yielded a pKi of 7.23.

For `O=S1(=O)N(Cc2cccc(CCO)c2)[C@H](COc2ccccc2)[C@H](O)[C@@H](O)[C@@H](COc2ccccc2)N1Cc1cccc(CCO)c1`, the pKi was 7.37.

`O=S1(=O)N(Cc2ccc(CO)cc2)[C@H](COc2ccccc2)[C@H](O)[C@@H](O)[C@@H](COc2ccccc2)N1Cc1ccc(CO)cc1` gave a pKi of 8.51.

In the case of `COC(=O)c1ccc(CN2[C@H](COc3ccccc3)[C@H](O)[C@@H](O)[C@@H](COc3ccccc3)N(Cc3ccc(C(=O)OC)cc3)S2(=O)=O)cc1`, the pKi was 7.08.

In the case of `O=C(CN1[C@H](COc2ccccc2)[C@H](O)[C@@H](O)[C@@H](COc2ccccc2)N(Cc2ccc(-c3cccs3)cc2)S1(=O)=O)Nc1nccs1` [2-[(3R,4S,5S,6R)-4,5-dihydroxy-1,1-dioxo-3,6-bis(phenoxymethyl)-7-{[4-(thiophen-2-yl)phenyl]methyl}-1,2,7-thiadiazepan-2-yl]-N-(1,3-thiazol-2-yl)acetamide], the pKi was 5.74.

`CNC(=O)CN1[C@H](COc2ccccc2)[C@H](O)[C@@H](O)[C@@H](COc2ccccc2)N(Cc2ccccc2)S1(=O)=O` [2-[(3R,4S,5S,6R)-7-benzyl-4,5-dihydroxy-1,1-dioxo-3,6-bis(phenoxymethyl)-1,2,7-thiadiazepan-2-yl]-N-methylacetamide] gave a pKi of 5.85.

`CNC(=O)c1cccc(CN2[C@H](COc3ccccc3)[C@H](O)[C@@H](O)[C@@H](COc3ccccc3)N(Cc3cccc(C(=O)NC)c3)S2(=O)=O)c1` [(3R,4S,5S,6R)-2,7-Bis[3-(N-methylcarbamoyl)benzyl]-3,6-bis(phenoxymethyl)-4,5-dihydroxy-1,2,7-thiadiazepine 1,1-Dioxide] was tested, and the pKi was 7.41.

`CNC(=O)CN1[C@H](COc2ccccc2)[C@H](O)[C@@H](O)[C@@H](COc2ccccc2)N(CC(=O)NC)S1(=O)=O` [(3R,4S,5S,6R)-2,7-Bis[(N-methylcarbamoyl)methyl]-3,6-bis(phenoxymethyl)-4,5-dihydroxy-1,2,7-thiadiazepine 1,1-Dioxide] was tested, and the pKi was 4.60.

`CN1[C@H](COc2ccccc2)[C@H](O)[C@@H](O)[C@@H](COc2ccccc2)N(C)S1(=O)=O` [(3R,4S,5S,6R)-2,7-Bismethyl-3,6-bis(phenoxymethyl)-4,5-dihydroxy-1,2,7-thiadiazepine 1,1-Dioxide] gave a pKi of 6.15.

`COC(Cc1cccc(CN2[C@H](COc3ccccc3)[C@H](O)[C@@H](O)[C@@H](COc3ccccc3)N(Cc3cccc(CC(OC)OC)c3)S2(=O)=O)c1)OC` [(3R,4S,5S,6R)-2,7-bis({[3-(2,2-dimethoxyethyl)phenyl]methyl})-4,5-dihydroxy-3,6-bis(phenoxymethyl)-1,2,7-thiadiazepane-1,1-dione] gave a pKi of 6.27.

For `O=S1(=O)N(Cc2ccccc2)[C@H](COc2ccccc2)[C@H](O)[C@@H](O)[C@@H](COc2ccccc2)N1Cc1ccc(-c2cccs2)cc1` [(3R,4S,5S,6R)-2-benzyl-4,5-dihydroxy-3,6-bis(phenoxymethyl)-7-{[4-(thiophen-2-yl)phenyl]methyl}-1,2,7-thiadiazepane-1,1-dione], the pKi was 7.20.

With `O=S1(=O)N(Cc2cccc(-c3cccs3)c2)[C@H](COc2ccccc2)[C@H](O)[C@@H](O)[C@@H](COc2ccccc2)N1Cc1cccc(-c2cccs2)c1` [(3R,4S,5S,6R)-3,6-Bis(phenoxymethyl)-2,7-bis[3-(2-thienyl)benzyl]-4,5-dihydroxy-1,2,7-thiadiazepine 1,1-Dioxide] the pKi was 5.66.

`O=C(CN1[C@H](COc2ccccc2)[C@H](O)[C@@H](O)[C@@H](COc2ccccc2)N(Cc2cccc(-c3cccs3)c2)S1(=O)=O)Nc1nccs1` [(3R,4S,5S,6R)-3,6-Bis(phenoxymethyl)-4,5-dihydroxy-2-[(N-2-thiazolylcarbamoyl)methyl]-7-[3-(2-thienyl)benzyl]-1,2,7-thiadiazepine 1,1-Dioxide] gave a pKi of 6.85.

`O=C(CN1[C@H](COc2ccccc2)[C@H](O)[C@@H](O)[C@@H](COc2ccccc2)N(Cc2cccc(I)c2)S1(=O)=O)Nc1nccs1` [(3R,4S,5S,6R)-3,6-Bis(phenoxymethyl)-4,5-dihydroxy-7-(3-iodobenzyl)-2-[(N-2-thiazolylcarbamoyl)methyl]-1,2,7-thiadiazepine 1,1-Dioxide] gave a pKi of 6.29.

For `O=C(CN1[C@H](COc2ccccc2)[C@H](O)[C@@H](O)[C@@H](COc2ccccc2)N(Cc2ccccc2)S1(=O)=O)Nc1nccs1` [(3R,4S,5S,6R)-3,6-Bis(phenoxymethyl)-4,5-dihydroxy-7-benzyl-2-[(N-2-thiazolylcarbamoyl)methyl]-1,2,7-thiadiazepine 1,1-Dioxide], the pKi was 6.46.

`CN1[C@H](COc2ccccc2)[C@H](O)[C@@H](O)[C@@H](COc2ccccc2)N(Cc2ccccc2)S1(=O)=O` [(3R,4S,5S,6R)-3,6-Bis(phenoxymethyl)-4,5-dihydroxy-7-methyl-2-benzyl-1,2,7-thiadiazepine 1,1-Dioxide] showed a pKi of 6.29.

`O=S1(=O)N(Cc2ccc(-c3cccs3)cc2)[C@H](COc2ccccc2)[C@H](O)[C@@H](O)[C@@H](COc2ccccc2)N1Cc1ccc(-c2cccs2)cc1` [(3R,4S,5S,6R)-4,5-dihydroxy-3,6-bis(phenoxymethyl)-2,7-bis({[4-(thiophen-2-yl)phenyl]methyl})-1,2,7-thiadiazepane-1,1-dione] gave a pKi of 6.04.

`O=S1(=O)N(Cc2ccc(-c3cccs3)cc2)[C@H](COc2ccccc2)[C@H](O)[C@@H](O)[C@@H](COc2ccccc2)N1Cc1cccc(-c2cccs2)c1` [(3R,4S,5S,6R)-4,5-dihydroxy-3,6-bis(phenoxymethyl)-7-{[3-(thiophen-2-yl)phenyl]methyl}-2-{[4-(thiophen-2-yl)phenyl]methyl}-1,2,7-thiadiazepane-1,1-dione] gave a pKi of 5.22.
